In patent US8785655B2, “Ionic liquid solvents” (Dublin City University, priority 2009, dated 2014):

Tests used:
[1] = system: Staphylococcus aureus CCM 4516/08; test: Screen against bacteria, MIC/IC80; format: cell-based; settings: SA
[2] = system: Staphylococcus epidermidis H 6966/08; test: Screen against bacteria, MIC/IC80; format: cell-based; settings: SE
[3] = system: Enterococcus sp. J 14365/08; test: Screen against bacteria, MIC/IC80; format: cell-based; settings: EF
Candida tropicalis 156 = test: In vitro antifungal activity, MIC by microdilution (NCCLS M27-A); settings: CT
[4] = system: Klebsiella pneumoniae D 11750/08; test: Screen against bacteria, MIC/IC80; format: cell-based; settings: KP
[5] = system: Trichophyton mentagrophytes 445; test: In vitro antifungal activity, MIC by microdilution (NCCLS M27-A); settings: TM
Candida krusei ATCC 6258 = test: as above
Method: (§1) In vitro antifungal activities of the compounds were evaluated on the collection of fungal strains deposited at the Department of Biological and Medical Sciences, Faculty of Pharmacy, Charles University, Czech Republic. All the isolates were maintained on Sabouraud dextrose agar prior to being tested.
(§2) Minimum inhibitory concentrations (MICs) were determined by the microdilution format of the NCCLS M27-A guidelines. […] RPMI 1640 (Sevapharma, Prague) medium supplemented with L-glutamine and buffered with 0.165 M morpholinepropanesulfonic acid to pH 7.0 was used as the test medium. The wells of the microdilution tray contained 100 μl of the RPMI 1640 medium with 2-fold serial dilutions of the compounds (1000 to 0.24 μmol/l for the new compounds) and 100 μl of inoculum suspension. Fungal inoculum in RPMI 1640 was prepared to give a final concentration of 5×103±0.2 cfu·ml-1. The trays were incubated at 35° C. and MICs were read visually for filamentous fungi and photometrically for yeasts as an optical density (OD) at 540 nm after 24 h and 48 h. The MICs were defined as 80% inhibition of the growth of control. MICs were determined twice and in duplicate. The deviations from the usually obtained were no higher than the nearest concentration value up and down the dilution scale.

Absidia corymbifera 272 = test: as above; settings: AC
[6] = system: Candida albicans ATCC 44859; test: as above
[7] = system: Aspergillus fumigatus 231; test: as above; settings: AF
Escherichia coli CCM4517 = test: Screen against bacteria, MIC/IC80; format: cell-based; settings: EC
Candida glabrata 20/l = test: In vitro antifungal activity, MIC by microdilution (NCCLS M27-A); settings: CG
Method: as §1, §2

[8] = system: Candida parapsilosis ATCC 22019; test: as above; settings: CP
Method: as §1, §2

[9] = system: Candida lusitaniae 2446/l; test: as above; settings: CL
[10] = system: Pseudomonas aeruginosa CCM 1961; test: Screen against bacteria, MIC/IC80; format: cell-based; settings: PA
[11] = system: Klebsiella pneumoniae J 14368/08 ESBL-positive; test: Screen against bacteria, MIC/IC80; format: cell-based; settings: KP-E
Candida krusei E28 = test: In vitro antifungal activity, MIC by microdilution (NCCLS M27-A)
Method: All the isolates were maintained on Sabouraud dextrose agar prior to being tested.
as §2

[12] = system: Staphylococcus aureus H 5996/08 Methiciline-resistant; test: Screen against bacteria, MIC/IC80; format: cell-based; settings: MRSA
[13] = system: Candida albicans ATCC 90028; test: In vitro antifungal activity, MIC by microdilution (NCCLS M27-A)

Measured: MIC/IC80

COC(=O)C(OC(=O)C[n+]1ccn(C)c1)c1ccccc1 (stereo not drawn) [KG86, RS-3-methyl-1-[1-(methoxycarbonyl)-1-phenylmethoxycarbonylmethyl]imidazolium octyl sulphate]
>1000 µM: [1]; 24 h | [2]; 24 h | [3]; 24 h | Candida tropicalis 156; 24 h | [4]; 24 h | [5]; 72 h | Candida krusei ATCC 6258; CK1, 24 h | Absidia corymbifera 272; 24 h | [6]; CA1, 24 h | [7]; 24 h | Escherichia coli CCM4517; 24 h | Candida glabrata 20/l; 24 h | [8]; 24 h | [9]; 24 h | [10]; 24 h

CCCCCCCCOS(=O)(=O)[O-].COC(=O)[C@@H](OC(=O)Cn1cc[n+](C)c1)c1ccccc1 [KG88, S-3-methyl-1-[1-(methoxycarbonyl)-1-phenylmethoxycarbonylmethyl]imidazolium octyl sulphate]
>1000 µM: [1]; 24 h | [1]; 48 h | [2]; 24 h | [2]; 48 h | [3]; 24 h | [3]; 48 h | [11]; 24 h | [11]; 48 h | Candida tropicalis 156; 24 h | Candida tropicalis 156; 48 h | [4]; 24 h | [4]; 48 h | Candida krusei E28; CK2, 24 h | Candida krusei E28; CK2, 48 h | [5]; 72 h | [5]; 120 h | Candida krusei ATCC 6258; CK1, 24 h | Candida krusei ATCC 6258; CK1, 48 h | Absidia corymbifera 272; 24 h | Absidia corymbifera 272; 48 h | [6]; CA1, 24 h | [6]; CA1, 48 h | [7]; 24 h | [7]; 48 h | Escherichia coli CCM4517; 24 h | Escherichia coli CCM4517; 48 h | Candida glabrata 20/l; 24 h | Candida glabrata 20/l; 48 h | [8]; 24 h | [8]; 48 h | [12]; 24 h | [12]; 48 h | [9]; 24 h | [9]; 48 h | [10]; 24 h | [10]; 48 h | [13]; CA2, 24 h | [13]; CA2, 48 h

COC(=O)C(OC(=O)C[n+]1ccn(C)c1)c1ccccc1 (stereo not drawn) [KG89, RS-3-methyl-1-[1-(methoxycarbonyl)-1-phenylmethoxycarbonylmethyl]imidazolium bromide]
>1000 µM: [1]; 24 h | [1]; 48 h | [2]; 24 h | [2]; 48 h | [3]; 24 h | [3]; 48 h | [11]; 24 h | [11]; 48 h | Candida tropicalis 156; 24 h | Candida tropicalis 156; 48 h | [4]; 24 h | [4]; 48 h | Candida krusei E28; CK2, 24 h | Candida krusei E28; CK2, 48 h | [5]; 72 h | [5]; 120 h | Candida krusei ATCC 6258; CK1, 24 h | Candida krusei ATCC 6258; CK1, 48 h | Absidia corymbifera 272; 24 h | Absidia corymbifera 272; 48 h | [6]; CA1, 24 h | [6]; CA1, 48 h | [7]; 24 h | [7]; 48 h | Escherichia coli CCM4517; 24 h | Escherichia coli CCM4517; 48 h | Candida glabrata 20/l; 24 h | Candida glabrata 20/l; 48 h | [8]; 24 h | [8]; 48 h | [12]; 24 h | [12]; 48 h | [9]; 24 h | [9]; 48 h | [10]; 24 h | [10]; 48 h | [13]; CA2, 24 h | [13]; CA2, 48 h

COC(=O)[C@H](OC(=O)C[n+]1ccn(C)c1)c1ccccc1 [KG90, R-3-methyl-1-[1-(methoxycarbonyl)-1-phenylmethoxycarbonylmethyl]imidazolium bromide]
>1000 µM: [1]; 24 h | [1]; 48 h | [2]; 24 h | [2]; 48 h | [3]; 24 h | [3]; 48 h | [11]; 24 h | [11]; 48 h | Candida tropicalis 156; 24 h | Candida tropicalis 156; 48 h | [4]; 24 h | [4]; 48 h | Candida krusei E28; CK2, 24 h | Candida krusei E28; CK2, 48 h | [5]; 72 h | [5]; 120 h | Candida krusei ATCC 6258; CK1, 24 h | Candida krusei ATCC 6258; CK1, 48 h | Absidia corymbifera 272; 24 h | Absidia corymbifera 272; 48 h | [6]; CA1, 24 h | [6]; CA1, 48 h | [7]; 24 h | [7]; 48 h | Escherichia coli CCM4517; 24 h | Escherichia coli CCM4517; 48 h | Candida glabrata 20/l; 24 h | Candida glabrata 20/l; 48 h | [8]; 24 h | [8]; 48 h | [12]; 24 h | [12]; 48 h | [9]; 24 h | [9]; 48 h | [10]; 24 h | [10]; 48 h | [13]; CA2, 24 h | [13]; CA2, 48 h
